In patent US7960508B2, “Peptide having cytotoxicity inhibitory activity and method of screening these peptide having cytotoxicity inhibitory activity” (Juridical Foundation The Chemo-Sero-Therapeutic Research …, priority 2001, dated 2011):
Non-standard residues stand in square brackets, D forms with d. Residues, ends and D or L forms follow the SMILES beside them. No end group written: not given here. Sec = N[C@@H](C[SeH])C(=O)O

Legend:
[1] = system: Dami cells; assay: Screening of efficacious peptides: cytotoxicity-inhibitory activity (Example 3); type: cell-based; details: for Activity/1 mM Sec: cytotoxicity-inhibitory activity per 1 mM selenocysteine
Protocol: (§1) The cells were washed twice with 50% PBS/SA/0.03% HSA (manufactured by SIGMA) and suspended in the same medium at 3×10^4 cells/ml.
(§2) For assessment, it was examined to what folds of dilution of tested samples the cells could survive in view of the fact that on Day 4 the cells in wells without the activity were put to death whereas the cells in wells with the activity survived.
Cytotoxicity-inhibitory activity was determined for each of the peptides obtained above as described in Reference Example 1 and in accordance with Reference Example 2. As a result, selenocysteine-containing peptides, Peptide 3 through Peptide 16, were confirmed to have the cytotoxicity-inhibitory activity.

[2] = system: Dami cells; assay: Minimum concentration for cytotoxic effect / effective minimum concentration (Example 2); type: cell-based
Protocol: Using Dami cells (described in Greenberg S. M. et al., Blood, vol. 72, p. 1968-1977 (1988)) for use in assay system for the cytotoxicity-inhibitory activity, the cells were washed twice with assay medium (50% PBS/SA/0.03% HSA (manufactured by SIGMA) or SA/0.05% BSA free from fatty acid (WAKO)/4 μM long-chain polyvalent fatty acid (e.g. arachidonic acid, linoleic acid or linolenic acid)) and suspended in the same medium at 3×10^4 cells/ml.

[3] = system: intracellular GPX (glutathione peroxidase) activity in Dami cells; assay: Increase in intracellular GPX (glutathione peroxidase) activity (Example 5); type: cell-based, human
Protocol: The resulting cells were suspended in SA/0.01% BSA at 5×10^5 cells/ml. To 1 ml of this cell suspension were added samples at a fixed concentration so as to compare a concentration that was effective for increase in GPX activity in the samples.
The samples included a selenoprotein P fragment, a synthetic peptide, selenocystine, selenomethionine, Ebselen and sodium selenite. The effect was compared among these samples. […] See FIG. 4 in which the axis of abscissas indicates a percent GPX activity induced by various samples with the GPX activity induced by addition of 10 nM selenoprotein P fragment being 100% while culture of Dami cells.

[4] = system: Dami cells; assay: Cytotoxicity induced by fatty acid and inhibitory activity thereto (Reference Example 2); details: for fatty acid concentration inducing cytotoxicity: human
Protocol: To 1 ml Dami cells (1×10^6 cells/dish/3 ml), which can be subcultured in serum free medium SFO3 (manufactured by Sanko Jun-yaku K.K.) containing 0.05 μM 2ME and 0.1% BSA, was added 2 ml 1:2:2 mixed medium (SA medium) of RPMI 1640/D-MEM/F-12. The cells were cultured for three days and recovered for assay. The cells were washed twice with SA/0.05% fatty acid free BSA (manufactured by Wako Jun-yaku K.K.) and suspended at 3×10^4 cells/ml in the same medium containing 2 to 16 μM arachidonic acid, linoleic acid or linolenic acid. The cell suspension was added to a 96-well plate in each 198 μl for wells for sample addition or in each 100 μl for wells for serial dilution.
To the wells for sample addition was added each 2 μl of 100 μM assay sample and, after stirring, a serial dilution was made with the wells containing 100 μl cell suspension. The plate was incubated at 37° C. in CO2 incubator for 4 to 5 days.

[5] = system: Dami cells; assay: Assessment system for activity to inhibit cytotoxicity induced by addition of albumin (Reference Example 1); type: cell-based
Protocol: As one of preferable embodiments, a culture system of Dami cells, human megakaryoblasts, with serum free culture medium supplemented with albumin was used for screening. […] A diluted sample of active fractions was added to this culture system so that the cytotoxicity-inhibitory activity could be assessed.
as §1, §2

[6] = 1 nM, 10 nM selenoprotein P fragment being 100%

Molecule: RSSCCHCRHLIFEK (cysteine pairing not given here) [Peptide 2]
- Activity/1 mM Sec [1]: 0

Molecule: Glu Asn Leu Pro Ser Leu Ser Ser Xaa Gln Gly Leu Arg (ENLPSLSS[Sec]QGLR; listed as Human plasma) [Peptide 9]
- Activity/1 mM Sec [1]: 24,000

Molecule: Arg Ser Xaa Ser Cys His Cys Arg His Leu Ile Phe Glu Lys (RS[Sec]SCHCRHLIFEK; cysteine pairing not given here; listed as Human plasma) [Peptide 4]
- Activity/1 mM Sec [1]: 24,000

Molecule: C[Se]CC[C@H](N)C(=O)O [selenomethionine]
- effective minimum concentration of selenium to inhibit 80% or more of cytotoxicity [2]: around 1 μM
- increase in intracellular GPX activity ([3]; 10 nM): increase in the activity could scarcely be observed

Molecule: N[C@@H](C[Se][Se]C[C@H](N)C(=O)O)C(=O)O [selenocystine]
- toxicity upon addition to cell culture [2]: fairly strong toxicity
- increase in intracellular GPX activity [3, 6]: around 50%

Molecule: Lys Glu Phe Ile Leu His Arg Ser His Ser Ser Xaa Ser Arg (KEFILHRSHSS[Sec]SR; listed as Human plasma) [Peptide 14]
- Activity/1 mM Sec [1]: 95,000

Molecule: vitamin E
- effective concentration inhibiting cytotoxicity ([4]; in the presence of 4 μM linoleic acid): about 100 nM

Molecule: CC[C@H](C)[C@H](NC(=O)[C@H](CC(C)C)NC(=O)[C@H](Cc1c[nH]cn1)NC(=O)[C@H](CCCNC(=N)N)NC(=O)[C@H](CO)NC(=O)[C@H](Cc1c[nH]cn1)NC(=O)[C@H](CO)NC(=O)[C@H](CO)NC(=O)[C@H](C[SeH])NC(=O)[C@H](CO)NC(=O)[C@@H](N)CCCNC(=N)N)C(=O)N[C@@H](Cc1ccccc1)C(=O)N[C@@H](CCC(=O)O)C(=O)N[C@@H](CCCCN)C(=O)O [Peptide 6] (H-RS[Sec]SSHSRHLIFEK-OH)
- cytotoxicity-inhibitory activity ([1]; result in words): could inhibit cytotoxicity most effectively at the lowest concentration

Molecule: Leu Pro Pro Ala Ala Xaa Gln Ile Ser Gln Gln (LPPAA[Sec]QISQQ; listed as Human plasma) [Peptide 16]
- Activity/1 mM Sec [1]: 24,000

Molecule: CCCCC/C=C\C/C=C\CCCCCCCC(=O)O [linoleic acid]
- fatty acid concentration inducing cytotoxicity [4]: ≥ 4 µM

Molecule: Lys Arg Cys Ile Asn Gln Leu Leu Cys Lys Leu Pro Thr Asp Ser Glu Leu Ala Pro Arg Ser Xaa Cys Cys His Cys Arg His Leu Ile Phe Glu Lys (KRCINQLLCKLPTDSELAPRS[Sec]CCHCRHLIFEK; cysteine pairing not given here; listed as Human plasma) [SEQ ID NO: 3, peptide fragment purified under reduced condition from selenoprotein P fragment]
- cytotoxicity-inhibitory activity ([5]; result in words, assay not specified): had the cytotoxicity-inhibitory activity

Molecule: Lys Asn Gln Ala Lys Lys Xaa Glu (KNQAKK[Sec]E; listed as Human plasma) [Peptide 12]
- Activity/1 mM Sec [1]: 24,000

Molecule: CCCCC/C=C\C/C=C\C/C=C\C/C=C\CCCC(=O)O [arachidonic acid]
- fatty acid concentration inducing cytotoxicity [4]: ≥ 4 µM

Molecule: Xaa Pro Ser Asn ([Sec]PSN; listed as Human plasma) [Peptide 13]
- Activity/1 mM Sec [1]: 24,000

Molecule: CCCCC/C=C\C/C=C\C/C=C\C/C=C\CCCCCC(=O)O [adrenic acid]
- induction of cytotoxicity by fatty acid ([4]; 10 μM, serum free culture, absence of selenoprotein P): induced cytotoxicity

Molecule: Arg Ser Xaa Ser (RS[Sec]S; listed as Human plasma) [Peptide 7]
- Activity/1 mM Sec [1]: 95,000

Molecule: Arg Ser Xaa Ser Ser His Cys Arg His Leu Ile Phe Glu Lys (RS[Sec]SSHCRHLIFEK; listed as Human plasma) [Peptide 5]
- Activity/1 mM Sec [1]: 16,000

Molecule: Ala Glu Glu Asn Ile Thr Glu Ser Ser Gln Xaa Arg (AEENITESSQ[Sec]R; listed as Human plasma) [Peptide 10]
- Activity/1 mM Sec [1]: 6,000

Molecule: O=[Se](O)O [sodium selenite]
- concentration at which toxicity was observed ([2]; on the basis of selenium concentration, 4 to 5 days culture): around 500 nM
- increase in intracellular GPX activity [3, 6]: around 50%

Molecule: Thr Gly Ser Ala Ile Thr Xaa Gln Ser Lys (TGSAIT[Sec]QSK; listed as Human plasma) [Peptide 8]
- Activity/1 mM Sec [1]: 79,000

Molecule: KRCINQLLCKLPTDSELAPRS (cysteine pairing not given here) [Peptide 1]
- Activity/1 mM Sec [1]: 0

Molecule: Leu Ile Pro Thr Glu Ala Ser Ala Ser Xaa Arg (LIPTEASAS[Sec]R; listed as Human plasma) [Peptide 11]
- Activity/1 mM Sec [1]: 28,000

Molecule: Arg Ser Xaa Cys Cys His Cys Arg His Leu Ile Phe Glu Lys (RS[Sec]CCHCRHLIFEK; cysteine pairing not given here; listed as Human plasma) [Peptide 3]
- Activity/1 mM Sec [1]: 95,000

Molecule: O=c1c2ccccc2[se]n1-c1ccccc1 [Ebselen]
- toxicity upon addition to cell culture [2]: exhibited a strong toxicity

B1: SEQ ID NO: 2: selenoprotein P fragment with the amino acid sequence from 260th Lys to 362nd Asn, Xaa represents selenocysteine (protein, listed as Human plasma)
chain: KRCINQLLCKLPTDSELAPRS[Sec]CCHCRHLIFEKTGSAIT[Sec]QCKENLPSLCS[Sec]QGLRAEENITESCQ[Sec]RLPPAA[Sec]QISQQLIPTEASAS[Sec]R[Sec]KNQAKK[Sec]E[Sec]PSN
- cytotoxicity-inhibitory activity [5]: having the cytotoxicity-inhibitory activity

B2: full-length selenoprotein P: selenoprotein P as an intact molecule, a protein from blood components (protein, UniProt P49908 1-381, looked up)
chain: MWRSLGLALALCLLPSGGTESQDQSSLCKQPPAWSIRDQDPMLNSNGSVTVVALLQASUYLCILQASKLEDLRVKLKKEGYSNISYIVVNHQGISSRLKYTHLKNKVSEHIPVYQQEENQTDVWTLLNGSKDDFLIYDRCGRLVYHLGLPFSFLTFPYVEEAIKIAYCEKKCGNCSLTTLKDEDFCKRVSLATVDKTVETPSPHYHHEHHHNHGHQHLGSSELSENQQPGAPNAPTHPAPPGLHHHHKHKGQHRQGHPENRDMPASEDLQDLQKKLCRKRCINQLLCKLPTDSELAPRSUCCHCRHLIFEKTGSAITUQCKENLPSLCSUQGLRAEENITESCQURLPPAAUQISQQLIPTEASASURUKNQAKKUEUPSN
modifications: full-length
notes: selenoprotein P as an intact molecule, a protein from blood components
- toxicity upon addition to cell culture [2]: no strong toxicity
